Reference: patent publication US8993595B2, “Macrocyclic serine protease inhibitors” (priority 2009, dated 2015)
Like-named read-outs stand apart in the source and are kept apart here.

Tests used:
[1] = human, in vivo
[2] = molecular target: T1, human CYP450 3A4 (Homo sapiens, UniProt P08684); assay: CYP450 inhibition assay, 3A4; assay type: in vitro ADME
T1 construct: purchased BD Bioscience
Procedure: (§1) Compound 52 was incubated with human CYP450 cDNA-expressed isoenzymes according to the protocol (BD Bioscience). For CYP2C9, a luminogenic substrate was used with the P450-Glo™ kit. In addition, the effect of the compound on CYP2C9-mediated diclofenac metabolism was measured by LC-UV. The potential inhibitory effect of the compound on human UGT1A1 was examined using human liver microsomes and bilirubin as substrate. The metabolites (mono- and di-glucuronidated bilirubin) were measured by LC-UV.

[3] = Pharmacokinetics in human volunteers, single dose cohorts
[4] = tested on: 1a replicon; assay: HCV replicon luciferase assay, genotype 1a; assay type: cell-based
Procedure: (§2) Compound 52 was tested against genotypes 1a, 1b, and 2a in an HCV replicon assay as described in Example 2. Replicon cells (genotype 1a or 1b) were seeded onto 96-well plates, cultured for three days in the presence of the compound, and subject to a luciferase assay.

[5] = tested on: genotype 1b luciferase-replicon NS3 D168A
Procedure: (§3) The activity of compound 52 was evaluated against replicons bearing single protease inhibitor-resistance mutations as compared to its activity against the wild-type replicon. Mutations were introduced into a genotype 1b luciferase-replicon by site-directed mutagenesis. Compound activity was measured in cells transiently transfected with in vitro transcribed wild-type or mutant luciferase-replicon RNA by luciferase assay after 4-day treatment. Replication capacity was determined in untreated transfected cells by comparing the luciferase activity at 4 hrs and 4 days post-transfection.

[6] = tested on: genotype 1b luciferase-replicon NS3 D168V
Procedure: as §3

[7] = tested on: genotype 1b luciferase-replicon NS3 R155Q
Procedure: as §3

[8] = tested on: genotype 1b luciferase-replicon NS3 A156T
Procedure: as §3

[9] = tested on: genotype 1b luciferase-replicon NS3 R155K
Procedure: as §3

[10] = tested on: genotype 1b luciferase-replicon NS3 D168Y
Procedure: as §3

[11] = tested on: genotype 1b luciferase-replicon NS3 Q80R
Procedure: as §3

[12] = tested on: genotype 1b luciferase-replicon NS3 D168E
Procedure: as §3

[13] = tested on: ZlucA cell line (genotype 1b replicon selected with 10 nM compound 52, D168V); assay: Extent of resistance after selection, luciferase assay, ZlucA; assay type: cell-based, HCV; settings: selecting conc. 10 nM, EC50 resistant / EC50 wild-type
Procedure: (§4) Replicon cells (genotype 1a or 1b) were treated with various concentrations of compound 52 in the presence of G418. Treatment-emergent genotypic changes were identified by population sequencing of NS3 (both protease and helicase regions). The activity of compound 52 and other compounds was evaluated by NS5A western blot after selection or luciferase assay during and after selection.
Eight drug-resistance replicon cell lines were created by long-term culture of genotype 1b replicon cells with 10 or 25 nM of compound 52. NS3 (AAs 1-631) was sequenced at each passage.

[14] = molecular target: T2, HCV NS3-4A Protease Genotype 2a (Hepatitis C virus genotype 2a, UniProt Q99IB8); assay: HCV protease assay, recombinant NS3-4A genotype 2a; assay type: biochemical; settings: mean ± SD, 3 experiments
T2 construct: recombinant HCV NS3-4A proteases
Procedure: (§5) The compounds were tested at a variety of concentrations in assay buffer containing a final DMSO concentration of 5%. Reactions were allowed to proceed for 60 min at room temperature and fluorescence measurements were recorded with a Tecan Infinity Spectrofluorimeter. The IC50 values were determined from the percent inhibition versus concentration data using a sigmoidal non-linear regression analysis based on four parameters with Tecan Magellan software.
(§6) Compound 52 was tested against genotypes 1a, 1b, 2a, 3a, and 4a of recombinant HCV NS3-4A proteases, along with other cellular proteases.

[15] = tested on: replicon bearing NS5B Mutation M423T
Procedure: as §3
(§7) The activity of compound 52 was also tested against replicons bearing a single polymerase inhibitor-resistance mutation. Each mutation confers resistance to a known polymerase inhibitor as reported in the literature.

[16] = tested on: replicon bearing NS5B Mutation C316Y
Procedure: as §3, §7

[17] = tested on: replicon bearing NS5B Mutation C445Y
Procedure: as §3, §7

[18] = tested on: replicon bearing NS5B Mutation M414T
Procedure: as §3, §7

[19] = tested on: replicon bearing NS5B Mutation Y448H
Procedure: as §3, §7

[20] = tested on: replicon bearing NS5B Mutation S282T
Procedure: as §3, §7

[21] = tested on: replicon bearing NS5B Mutation C445F
Procedure: as §3, §7

[22] = molecular target: T3, HCV NS3-4A Protease Genotype 4a (Hepatitis C virus genotype 4a, UniProt O39929); assay: HCV protease assay, recombinant NS3-4A genotype 4a; assay type: biochemical; settings: mean ± SD, 3 experiments
T3 construct: recombinant HCV NS3-4A proteases
Procedure: as §5, §6

[23] = tested on: 1b replicon; assay: HCV replicon luciferase assay, genotype 1b; assay type: cell-based
Procedure: as §2
Drug solutions were made up freshly in Huh-7 media as 2× stocks. Ten additional 5-fold dilutions were prepared from these stocks in DMEM without G418. […] Cells were then incubated at 37° C./5% CO2. […] For this, media was removed from the plates via gentle tapping. Fifty microliters of ONE-glo luciferase assay reagent was added to each well. […] The EC50 values were calculated from dose response curves from the resulting best-fit equations determined by Microsoft Excel and XLfit 4.1 software.

[24] = tested on: B-1a cell line (genotype 1a replicon selected with 10 nM, D168A); assay: Extent of resistance after selection, B-1a; assay type: cell-based, HCV; settings: selecting conc. 10 nM
Procedure: as §4

[25] = molecular target: T4, human CYP450 1A2 (Homo sapiens, UniProt P05177); assay: CYP450 inhibition assay, 1A2; assay type: in vitro ADME
T4 construct: purchased BD Bioscience
Procedure: as §1

[26] = Hepatitis C virus, 72 h, three days, luciferase assay

## COc1ccc2c(O[C@H]3CCN4C(=O)N(C)CCCC/C=C\[C@@H]5C[C@@]5(C(=O)NS(=O)(=O)C5(C)CC5)NC(=O)[C@@H]4C3)cc(-c3nc(C(F)(F)F)cs3)nc2c1C [Compound 52, 1-methyl-cyclopropanesulfonic acid{(Z)-(1S,4R,6S,18S)-18-[7-methoxy-8-methyl-2-(4-trifluoromethyl-thiazol-2-yl)-quinolin-4-yloxy]-13-methyl-2,14-dioxo-3,13,15-triaza-tricyclo[13.4.0.0*4,6*]nonadec-7-ene-4-carbonyl}amide]
[1]
  C24 hr: 8 ± 5 ng/mL
[2]
  IC50: ≥ 10000 nM
[3]; 2 HCV-infected patients, comparable Cmax
  total and trough exposure, HCV-infected patients compared to healthy volunteers: 2 fold
[3]; food compared to fasting state
  enhancement of overall plasma exposure by food: approximately 2 fold
[3]; single dose 100 mg, human volunteers
  C24 hr: 19 ± 9 ng/mL
[3]; single dose 200 mg, HCV patients, N = 2
  C24 hr: 131 ng/mL
[3]; single dose 200 mg, human volunteers
  C24 hr: 53 ± 26 ng/mL
[3]; single dose 400 mg Fasted, human volunteers
  C24 hr: 54 ± 28 ng/mL
[3]; single dose 400 mg, human volunteers
  C24 hr: 89 ± 16 ng/mL
[4]
  Selectivity Index: >22,647
[4]; [26]
  EC50: 3.4 ± 1.1 nM
[5]
  Fold-Change: 575 ± 210
[6]
  Fold-Change: 4587 ± 1003
[7]
  Fold-Change: 0.6 ± 0.09
[8]
  Fold-Change: 27.1 ± 9.5
[9]
  Fold-Change: 9.0 ± 1.7
[10]
  Fold-Change: 1107 ± 513
[11]
  Fold-Change: 5.7 ± 0.9
[12]
  Fold-Change: 41.4 ± 17.8
[13]
  Fold-Change: 250 ± 66
[14]
  IC50: 1.9 ± 0.5 nM
[15]
  Fold-Change: 0.9 ± 0.08
[16]
  Fold-Change: 1.7 ± 0.6
[17]
  Fold-Change: 0.9 ± 0.07
[18]
  Fold-Change: 1.6 ± 0.5
[19]
  Fold-Change: 1.7 ± 0.4
[20]
  Fold-Change: 1.4 ± 0.6
[21]
  Fold-Change: 0.9 ± 0.07
[22]
  IC50: 0.81 ± 0.03 nM
[23]
  Selectivity Index: 50,400
[23]; [26]
  EC50: 0.5 ± 0.1 nM
[24]
  Fold-Change: >3690
[25]
  IC50: ≥ 10000 nM
